In assay [1] the test system is wild-type T. gondii parasites. Also on record: method as in PMID 20436472, PMID 20485436. The conditions noted are these: cited from earlier work.
Assay [2] deals with T1, recombinant PfCDPK1 WT (Plasmodium falciparum, UniProt P62344).
T1 construct: made in house; host or cells: Escherichia coli BLR(DE3)pLysS, pGEX4T1
The assay can be described thus: BKI library screening, in vitro kinase assay (KinaseGlo). It is filed as biochemical. The conditions noted are these: 10 µM ATP, 90 min at 30°C; two independent experiments in triplicate. Here is the method:
(§1) Recombinant PfCDPK1 WT and PfCDPK1 T145M were used in the in vitro kinase assay to calculate the IC50s for the library of bumped kinase inhibitors. Thirty-one BKIs belonging to the pyrazolopyrimidine scaffold were screened ([18][–][21]). Protein kinase activity of recombinant enzymes was assayed using 20 µM synthetic peptide substrate […] […] These reactions were performed in a buffered solution containing 1 mM EGTA (pH 7.2), 10 mM MgCl2, 20 mM HEPES (pH 7.5), 0.1% BSA, and enzyme activation reagent containing 2 mM CaCl2. The reactions were initiated with addition of 10 µM ATP, and the reaction mixtures were incubated for 90 min at 30°C. […] The KinaseGlo (Promega, Madison, WI) luminescence-based assay, in which luminescence is inversely related to kinase activity and directly related to […], was used as previously described ([21]).

Assay [3] has as its system recombinant PfCDPK1 WT. The assay is described as above. The conditions noted are these: PfCDPK1 WT vs T145M recombinant enzymes. It is filed as biochemical, Plasmodium falciparum. Here is the method: as §1
Assay [4] has as its target recombinant P. falciparum cGMP-dependent protein kinase (PfPKG) (Plasmodium falciparum, UniProt Q8I719). The assay can be described thus: PfPKG in vitro kinase activity assay (luminescence). The conditions noted are these: 2 µM ATP, 20 µM cGMP, 2 h at 30°C; read-out: IC50 (SD) for PfPKG. Type of assay: biochemical. As for the experimental part: Compound efficacy against recombinant P. falciparum cGMP-dependent protein kinase (PfPKG) was determined using a novel nonradioactive and high-throughput assay. This assay evaluates protein kinase activity by measuring changes in […] ATP concentration via luminescence after PfPKG enzyme phosphorylation of a peptide substrate, PKCtide ([…]) (SignalChem, Richmond, BC, Canada). The in vitro kinase assay was set up with 26 µM PKCtide, 30 nM PfPKG, and 20 µM cGMP in a buffered solution containing 20 mM β-glycerol phosphate, 20 mM MgCl2, 25 mM HEPES (pH 7.5) (KOH), 0.1% bovine serum albumin (BSA), and 2 mM DTT ([37]). The reaction was initiated with addition of 2 µM ATP. The reaction mixture was incubated at 30°C and 90-rpm agitation for 2 h. Reaction wells with no PfPKG, no peptide substrate, and no cGMP were included in each assay plate as internal negative controls.

Assay [5] deals with T2, recombinant PfCDPK1 T145M (Plasmodium falciparum, UniProt P62344, T145M).
T2 construct: Full-length CDPK1 WT and five mutant proteins with different substitutions at the gatekeeper position (residue 145) were expressed in E. coli; made in house; host or cells: Escherichia coli BLR(DE3)pLysS, pGEX4T1
T2 sequence (P62344 whole entry T145M): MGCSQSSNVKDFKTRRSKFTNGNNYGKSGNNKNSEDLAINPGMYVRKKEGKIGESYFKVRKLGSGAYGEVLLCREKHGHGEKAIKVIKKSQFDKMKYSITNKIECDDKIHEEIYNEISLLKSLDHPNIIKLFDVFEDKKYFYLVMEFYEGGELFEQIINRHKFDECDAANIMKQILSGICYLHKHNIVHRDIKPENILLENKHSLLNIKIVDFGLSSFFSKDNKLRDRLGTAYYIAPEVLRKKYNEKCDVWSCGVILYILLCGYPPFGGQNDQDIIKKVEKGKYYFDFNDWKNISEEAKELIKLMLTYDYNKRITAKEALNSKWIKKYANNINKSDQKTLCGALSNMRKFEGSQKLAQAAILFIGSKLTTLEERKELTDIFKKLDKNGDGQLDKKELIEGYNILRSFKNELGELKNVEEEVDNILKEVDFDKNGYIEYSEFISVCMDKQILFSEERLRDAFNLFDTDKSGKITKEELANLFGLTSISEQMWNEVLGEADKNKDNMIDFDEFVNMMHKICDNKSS
Description: BKI library screening, in vitro kinase assay (KinaseGlo). It is filed as biochemical. The conditions noted are these: methionine gatekeeper mutant T145M; 10 µM ATP, 90 min at 30°C; read-out: PfCDPK1Met IC50. As for the experimental part:
as §1
For orientation: In Kinase-Glo more light means more ATP remaining.

The test system of a further assay is CDPK1 T145M parasites. Description: Asexual parasite growth inhibition (SYBR green I assay). It is filed as cell-based, Plasmodium falciparum. The conditions noted are these: BKIs. As for the experimental part: The parasites were electroporated as described earlier ([39]). Briefly, the ring-stage parasites at ~5% parasitemia were electroporated with 50 μg each of pL6CK1Met or pL6CK1Ser plasmid and pUF1 plasmid with the settings of 0.31 kV, 960 μF, and maximum capacitance on a Bio-Rad Gene Pulser II. WR99210 and DSM267 ([40]) were applied at the concentrations of 2 and 150 nM, respectively, after 24 h of transfection. The transgenic PfCDPK1 T145M parasites were cloned by limiting dilution in a 96-well plate. The PfCDPK1 gene sequence was amplified using primers ck1f1 (5′ […] 3′) and ck1r3wt (5′ […] 3′) specific for the region outside the homology arm of the plasmid, and the desired mutation was confirmed by DNA sequencing.
Asexual parasites were synchronized for two consecutive cycles by sorbitol treatment ([41]) and set up at 0.2% trophozoite stage (30 to 36 h postinvasion) in a 96-well plate. The growth progression was monitored for 7 days, and the growth rate of the parasites was calculated by sampling the culture every 24 h and measuring the fluorescence readout using the SYBR green I assay as described earlier ([42], [43]).

For assay [6], the system named is wild-type parasites (P. falciparum NF54). Described as above. Type of assay: cell-based, Plasmodium falciparum. The conditions noted are these: BKIs.

Sequence of recombinant P. falciparum cGMP-dependent protein kinase (PfPKG) (Q8I719 whole entry): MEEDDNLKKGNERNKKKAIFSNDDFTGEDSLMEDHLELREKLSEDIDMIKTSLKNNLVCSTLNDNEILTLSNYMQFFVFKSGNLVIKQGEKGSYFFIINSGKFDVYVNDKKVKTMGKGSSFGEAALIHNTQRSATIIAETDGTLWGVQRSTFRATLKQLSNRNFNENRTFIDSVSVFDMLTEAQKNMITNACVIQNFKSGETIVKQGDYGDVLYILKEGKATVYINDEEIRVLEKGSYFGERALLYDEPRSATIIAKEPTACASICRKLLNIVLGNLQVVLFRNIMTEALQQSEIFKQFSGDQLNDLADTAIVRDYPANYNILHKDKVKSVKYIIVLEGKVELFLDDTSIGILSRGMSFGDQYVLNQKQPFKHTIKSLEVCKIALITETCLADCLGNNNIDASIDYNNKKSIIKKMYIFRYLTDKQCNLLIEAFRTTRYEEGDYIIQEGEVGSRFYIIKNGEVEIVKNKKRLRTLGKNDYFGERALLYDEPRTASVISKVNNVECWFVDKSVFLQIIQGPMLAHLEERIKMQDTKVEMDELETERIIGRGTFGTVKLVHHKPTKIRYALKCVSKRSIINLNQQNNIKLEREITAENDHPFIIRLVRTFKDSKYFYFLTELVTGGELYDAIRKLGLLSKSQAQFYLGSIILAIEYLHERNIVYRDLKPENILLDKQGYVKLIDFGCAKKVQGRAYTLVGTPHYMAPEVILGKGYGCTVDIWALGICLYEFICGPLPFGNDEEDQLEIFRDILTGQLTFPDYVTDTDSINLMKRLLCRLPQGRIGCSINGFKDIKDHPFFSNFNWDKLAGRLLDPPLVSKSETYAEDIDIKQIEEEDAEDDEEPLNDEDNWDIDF
T1 sequence (P62344 whole entry): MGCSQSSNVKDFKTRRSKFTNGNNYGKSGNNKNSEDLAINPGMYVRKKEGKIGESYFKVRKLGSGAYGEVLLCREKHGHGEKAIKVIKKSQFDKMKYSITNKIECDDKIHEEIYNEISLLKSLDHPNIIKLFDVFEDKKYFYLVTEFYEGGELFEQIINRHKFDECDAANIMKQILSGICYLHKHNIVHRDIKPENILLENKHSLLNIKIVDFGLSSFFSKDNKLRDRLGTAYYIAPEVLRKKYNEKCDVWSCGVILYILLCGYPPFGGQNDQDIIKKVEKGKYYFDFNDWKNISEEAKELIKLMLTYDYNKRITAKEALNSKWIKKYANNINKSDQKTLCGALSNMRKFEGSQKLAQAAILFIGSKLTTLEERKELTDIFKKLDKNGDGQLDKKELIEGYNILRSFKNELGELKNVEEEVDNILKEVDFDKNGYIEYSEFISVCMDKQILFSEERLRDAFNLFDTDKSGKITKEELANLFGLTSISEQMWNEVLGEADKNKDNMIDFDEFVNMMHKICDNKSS

In the case of `Cc1cccc(Cc2nn(C(C)(C)C)c3ncnc(N)c23)c1` [3MBPP1], the “effect on microneme secretion and invasion of host cells” value in assay [1] is “block in microneme secretion and subsequent invasion of host cells”.
Turning to `CCOc1ccc2cc(-c3nn(CC4CCN(C)CC4)c4ncnc(N)c34)ccc2c1` [compound 1294], the IC50 (in general, the concentration that gives 50% inhibition) at recombinant PfCDPK1 WT [2] is 162 nM; in assay [4], 262 nM; in assay [5] it was above 2000 nM. In addition, in the assay with recombinant PfCDPK1 WT [3], the “fold-greater effect in vitro on wild-type enzyme than on methionine mutant” value worked out at 10 fold. The results for the EC50 (in the assay with CDPK1 T145M parasites; in assay [6]) were 6970 nM and 10900 nM, respectively.
On to `CCOc1ccc2cc(-c3nn(CC4CCN(C)CC4)c4ncnc(N)c34)ccc2n1` [compound 1369], for which the figures for the IC50 (at recombinant PfCDPK1 WT [2]; in assay [4]; in assay [5]) were 438 nM, above 2000 nM and above 2000 nM, respectively.
